Laboratory results: US8617614B2, “Sustained release preparation for tissue regeneration therapy” (Ono Pharmaceutical Co., Ltd., priority 2006, dated 2013)

How the values were obtained:
[1] = Blood concentration measurement test; type: in vivo; settings: male, Crl:CD (Sprague-Dawley), rat, plasma, 10 mg/kg
Method: Male Crl:CD (Sprague-Dawley) rats (SPF; Charles River Japan; 8-week-old) were subcutaneously administered the various preparations (microspheres) shown in Table 9 below at a dose of 5 mL/kg under non-fasting conditions. […] The blood thus obtained was centrifuged at 12,000 rpm for 2 minutes, and the supernatant was collected as plasma.
Blood concentration measurements of the present drug in the resulting plasma were carried out by a LC/MS/MS method. Pretreatment of the plasma consisted of adding an internal standard solution to the plasma and diluting with water, then loading into a solid-phase extraction cartridge column (ODS-B) and deproteinization by rinsing with water, followed by elution with methanol, concentration, and drying to hardness. The residue thus obtained was dissolved by adding 0.1% aqueous acetic acid/acetonitrile, and the resulting solution was poured into the LC/MS/MS apparatus.
• Present drug (Precursor ion (m/z)*: 429.2; Product ion (m/z)*: 79.2) • Internal standard (Precursor ion (m/z)*: 445.4; Product ion (m/z)*: 168.1) • *: Mass-to-charge ratio Retention time for present drug: 8.15 minutes • Test Group 1: Microspheres of Test Preparation 1 were administered subcutaneously at a dose of the present drug of 10 mg/kg. • Test Group 2: Microspheres of Test Preparation 2 were administered subcutaneously at a dose of the present drug of 10 mg/kg. • Test Group 3: Administered subcutaneously at a dose of the present drug of 10 mg/kg. • Test Group 4: Administered orally at a dose of the present drug of 10 mg/kg.
The test preparations used on the respective dose groups were formulated as shown below in Table 9. Each of the test preparations was prepared in general accordance with the method described in Preparation Example 1.

[2] = system: EGF; assay: EGF production promoting effect, angiogenesis kit culture, ELISA; type: cell-based, human; settings: 100 nmol/L
Method: An angiogenesis kit (Kurabo Industries Ltd.) composed of normal human umbilical vein endothelial cells and normal human skin fibroblasts was procured and used.
Using a carbon dioxide incubator (BNA-121D) and using Angiogenesis Culture 2 provided with the angiogenesis kit as the liquid culture, culturing was carried out in a wet environment at 37° C. with 5% carbon dioxide/95% air.
Immediately after the kit arrived, the cells were cultured for 3 hours, following which the liquid culture was replaced and culturing was continued. Three days after the start of culturing, the liquid culture was again replaced. Six days after the start of culturing, treatment with the present drug was carried out by replacing the liquid culture. The treatment concentration was set to 100 nmol/L in each case. DMSO treatment was carried out as a negative control. Six, 24, 48 and 72 hours after treatment with the present drug, the culture supernatant was collected and furnished for measurement of the growth factors. The measured growth factors were EGF and SDF-1.
The culture supernatant was measured with the following ELISA kits.
Human EGF Immunoassay (R&D Systems Inc., DEG00)

[3] = system: STZ induced diabetes model; assay: Nerve conduction velocity, STZ induced diabetes model; type: in vivo; settings: STZ rat, Test Group 3: 3 mg/kg oral twice daily
Method: Female Sprague-Dawley rats (8- to 11-week-old; Japan SLC, Inc.) were intraperitoneally administered 40 mg/kg of a citrate buffer (pH, approx. 4.5) of streptozotocin (STZ; Sigma). A normal control group was intraperitoneally given only the citrate buffer. Two weeks after STZ administration, and 4, 8 and 12 weeks after the start of test solution administration, the animals were anesthetized by the intraperitoneal administration of 30 to 45 mg/kg of pentobarbital. Fur was removed from the dorsolumbar region of the rat and the animal was immobilized in the prone position, following which a needle electrode for […] stimulation (NEC Medical Systems) was inserted near the sciatic nerve, a needle electrode for […] stimulation was inserted near the Achilles tendon on the same side, and a recording needle electrode (NEC Medical Systems) was inserted in the plantar muscle on the same side. After checking that the body temperature was in a range of 37 to 38° C., square-wave stimulation (0.5 Hz, 0.1 msec, submax voltage) to the distal and proximal stimulating electrodes was applied using an electrical stimulator (SEN-3301; Nihon Kohden Corporation). The evoked potential was led out via a measuring electrode, input through a bioelectric amplifier (AB-621G, Nihon Kohden Corporation) to an evoked electromyogram averaging program (MTS50061C, Medical Try System) and averaged ten times, and the nerve conduction velocity was computed from the respective distal and proximal conduction times and the electrode interval distances. Measurement was carried out on the left leg (treated side) and right leg (untreated side) in each test group, and the respective average values thereof used as the data. In Groups 2 to 5, the feeding blood sugar level two weeks after STZ administration was measured. Of rats with blood sugar levels above 300 mg/dL, severely diabetic rats were excluded therefrom, and the remaining rats were used as diabetes model animals. Groups were formed in such a way as to make the respective groups uniform with respect to nerve conduction velocity, blood sugar level and body weight. Administration was carried out in accordance with the intended route of administration for clinical use. In Test Group 3, forced administration was carried out orally using a disposable syringe barrel and a rat stomach probe. In Test Group 4, intramuscular administration was carried out uniformly at four places within the muscle along the sciatic nerve in the femoral portion of the left leg. For subcutaneous administration in test Group 5, the animals were ether anesthetized, and subcutaneous administration was carried out in the dorsal region using a disposable syringe barrel and a disposable 25 G syringe needle. The volume of solution administered was computed based on the latest body weight. The amount of microspheres administered indicates the amount of the present drug included.

[4] = Influence on body weight, STZ induced diabetes model; type: in vivo; settings: STZ rat, Test Group 3: 3 mg/kg oral twice daily
Method: Female Sprague-Dawley rats (8- to 11-week-old; Japan SLC, Inc.) were intraperitoneally administered 40 mg/kg of a citrate buffer (pH, approx. 4.5) of streptozotocin (STZ; Sigma). A normal control group was intraperitoneally given only the citrate buffer.
Administration was carried out in accordance with the intended route of administration for clinical use. In Test Group 3, forced administration was carried out orally using a disposable syringe barrel and a rat stomach probe. In Test Group 4, intramuscular administration was carried out uniformly at four places within the muscle along the sciatic nerve in the femoral portion of the left leg. For subcutaneous administration in test Group 5, the animals were ether anesthetized, and subcutaneous administration was carried out in the dorsal region using a disposable syringe barrel and a disposable 25 G syringe needle. The volume of solution administered was computed based on the latest body weight.
The rat body weights were measured before test substance administration and 14 weeks after the start of test substance administration.

[5] = po, Test Group 4: present drug oral 10 mg/kg
[6] = sc, Test Group 3: present drug s.c. 10 mg/kg
[7] = right leg (drug-untreated side)

`O=C(O)COc1cccc2c1CCC=C2CCO/N=C(\c1ccccc1)c1cccnc1` [present drug, ({5-[2-({[(1E)-phenyl(pyridin-3-yl)methylene]amino}oxy)ethyl]-7,8-dihydronaphthalen-1-yl}oxy)acetic acid] gave a concentration at 1 hour [1, 5] of 785 ng/mL, a concentration at 2 hours [1, 5] of 982 ng/mL and a concentration at 4 hours [1, 5] of 1320 ng/mL. For the same compound, the concentration at 8 hours [1, 5] was 705 ng/mL, the concentration at 1 day [1, 5] was 80 ng/mL and the concentration at 3 days [1, 5] was 0.04 ng/mL. The concentration at 1 hour [1, 6] was 1750 ng/mL, the concentration at 2 hours [1, 6] was 1400 ng/mL and the concentration at 4 hours [1, 6] was 685 ng/mL. For the same compound, the concentration at 8 hours [1, 6] was 870 ng/mL, the concentration at 12 hours ([1]; sc, Test Group 3: present drug s.c. 10 mg/kg, 12 hours) was 204 ng/mL and the concentration at 1 day [1, 6] was 1.05 ng/mL. For the same compound, the concentration at 2 days ([1]; sc, Test Group 3: present drug s.c. 10 mg/kg, 2 days) was under 0.2 ng/mL, the concentration at 3 days [1, 6] was 0.05 ng/mL and the “EGF relative to the solvent control group” value ([2]; 72 hours after treatment) was “significantly increased”. The “EGF, Drug group” value ([2]; culture supernatant 72 hours after treatment) was 4995 ± 442 pg/mL, the “left leg nerve conduction velocity relative to Test Group 2” value ([3]; after 12 weeks) was “significant nerve conduction velocity increases” and the “right leg nerve conduction velocity relative to Test Group 2” value ([3]; at any of the times) was “A significant extension effect was not confirmed”. For the same compound, the “Nerve conduction velocity (m/sec) 0 weeks” value ([3]; left leg (drug-treated side)) was 37.5 ± 8.0 m/sec, the “Nerve conduction velocity (m/sec) 4 weeks” value ([3]; left leg (drug-treated side)) was 37.8 ± 3.8 m/sec and the “Nerve conduction velocity (m/sec) 8 weeks” value ([3]; left leg (drug-treated side)) was 40.8 ± 3.4 m/sec. The “Nerve conduction velocity (m/sec) 0 weeks” value [3, 7] was 38.7 ± 5.0 m/sec, the “Nerve conduction velocity (m/sec) 4 weeks” value [3, 7] was 39.0 ± 2.3 m/sec and the “Nerve conduction velocity (m/sec) 8 weeks” value [3, 7] was 39.9 ± 2.2 m/sec. For the same compound, the “Nerve conduction velocity (m/sec) 12 weeks” value [3, 7] was 41.3 ± 2.1 m/sec, the “Body weight (g) 0 weeks” value [4] was 219.1 ± 12.2 g and the “body weight relative to Test Group 2” value ([4]; week 14) was “significant weight decreased”.
